{"source": "paper PMC8421360", "about": "“Spectroscopic glimpses of the transition state of ATP hydrolysis trapped in a bacterial DnaB helicase” (Nature Communications, 2021)", "target": "T1, HpDnaB (Helicobacter pylori, UniProt O25916)", "T1 construct": "gene dnaB; recombinant in E. coli BL21 Star (DE3), pACYC-duet1 (NdeI/XhoI); monomer 59 kDa; closed hexamer proposed with DNA, dodecamer in crystal 4ZC0", "T1 sequence (O25916 1-488)": "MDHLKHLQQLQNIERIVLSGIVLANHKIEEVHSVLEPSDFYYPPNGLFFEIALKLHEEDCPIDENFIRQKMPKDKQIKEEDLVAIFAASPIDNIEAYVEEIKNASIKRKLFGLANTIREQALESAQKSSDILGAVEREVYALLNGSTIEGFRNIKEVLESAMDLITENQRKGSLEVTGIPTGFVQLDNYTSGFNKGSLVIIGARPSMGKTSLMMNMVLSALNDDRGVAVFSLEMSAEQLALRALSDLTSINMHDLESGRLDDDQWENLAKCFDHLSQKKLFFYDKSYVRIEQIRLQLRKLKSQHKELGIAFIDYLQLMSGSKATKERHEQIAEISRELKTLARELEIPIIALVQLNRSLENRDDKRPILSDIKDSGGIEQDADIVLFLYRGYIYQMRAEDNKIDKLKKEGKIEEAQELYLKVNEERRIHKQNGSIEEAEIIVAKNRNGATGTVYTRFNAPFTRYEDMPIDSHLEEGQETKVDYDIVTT", "experiment": "proton-detected […],1H solid-state NMR (hPH, […] kHz MAS); Mn2+ EDNMR/ENDOR", "type": "binding", "settings": "as ADP:AlF4- complex; Mg2+ and (dT)20 for hPH NMR, Mn2+ without DNA for EPR; pH 7.5; Walker A nucleotide site (S206, G208, K209, T210, S211)"}
{"compound": "Nc1ncnc2c1ncn2[C@@H]1O[C@H](COP(=O)(O)OP(=O)(O)O)[C@@H](O)[C@H]1O", "note": "[ADP]", "values": [{"measurement": "proton-detected 31P,1H solid-state NMR (hPH, 105 kHz MAS); Mn2+ EDNMR/ENDOR", "result": "spatial correlations between Pβ of ADP and S206, G208, K209 and T210"}]}
